Results taken from ChEMBL document CHEMBL2202958, “Development of potent macrocyclic inhibitors of genotype 3a HCV NS3/4A protease” (Bioorg Med Chem Lett, 2012).

Assays:
[1] = Inhibition of HCV1b BK NS3/4A protease expressed in Escherichia coli after 1 hr by time-resolved fluorescence assay; design: species or system Hepatitis C virus (isolate BK)
[2] = Drug level in Sprague-Dawley rat liver at 5 mg/kg, po after 4 hrs; assay type: ADME, organism-based; design: dose 5 mg/kg, route oral; details: read-out: Drug uptake
[3] = test system: Hepatitis C virus; test: Inhibition of HCV1b NS3/4A protease R155K mutant by time-resolved fluorescence assay; design: species or system Hepatitis C virus subtype 1b
[4] = Inhibition of HCV3a NS3/4A protease by time-resolved fluorescence assay; design: species or system Hepatitis C virus subtype 3a
[5] = test system: Hepatitis C virus; test: Inhibition of HCV1b NS3/4A protease A156T mutant by time-resolved fluorescence assay; design: species or system Hepatitis C virus subtype 1b
[6] = test system: Hepatitis C virus; test: Antiviral activity against HCV1b con1 infected in human Huh-7 cells assessed as inhibition of viral replication after 24 hrs in presence of 50% normal human serum; assay type: functional, organism-based, Hepacivirus hominis; details: Con1, Huh-7, 24 h
[7] = test system: Hepatitis C virus; test: Antiviral activity against HCV1b con1 infected in human Huh-7 cells assessed as inhibition of viral replication after 24 hrs in presence of 10% fetal bovine serum; assay type: functional, organism-based, Hepacivirus hominis; details: Con1, Huh-7, 24 h
[8] = Inhibition of HCV3a NS3/4A protease; design: species or system Hepatitis C virus subtype 3a

Structure (SMILES) | Ki [1] | concentration at 4 h [2] | Ki [3] | Ki [4] | Ki [5] | IC50 [6] | IC50 [7] | Ki [8]
C=C[C@@H]1C[C@]1(NC(=O)[C@@H]1C[C@@H]2CN1C(=O)[C@H](C1CCCC1)NC(=O)OCC(C)(C)CCCc1cc3c(nc4cc(OC)ccc4c3cc1OC)O2)C(=O)NS(=O)(=O)C1CC1 | < 0.02 nM | 35 µM | 0.4 nM | 0.8 nM | 16 nM | 27 nM | 4 nM | 
C=C[C@@H]1C[C@]1(NC(=O)[C@@H]1C[C@@H]2CN1C(=O)[C@H](C1CCCC1)NC(=O)OCC(C)(C)CCCc1cc3c(cc(OCC)nc3cc1OC)O2)C(=O)NS(=O)(=O)C1CC1 | 0.03 nM | 35 µM | 1.3 nM | 2.2 nM | 41 nM | 11 nM | 2 nM | 
C=C[C@@H]1C[C@]1(NC(=O)[C@@H]1C[C@@H]2CN1C(=O)[C@H](C1CCCC1)NC(=O)OCC(C)(C)CCCc1cc3c(nc4ccc(Cl)cc4c3cc1OC)O2)C(=O)NS(=O)(=O)C1CC1 | < 0.02 nM |  |  | 36 nM |  | 31 nM | 7 nM | 
C=C[C@@H]1C[C@]1(NC(=O)[C@@H]1C[C@@H]2CN1C(=O)[C@H](C1CCCC1)NC(=O)OCC(C)(C)CCCc1cc3c(nc4cc(C)ccc4c3cc1OC)O2)C(=O)NS(=O)(=O)C1CC1 | < 0.02 nM | 16 µM |  | 1.9 nM |  | 15 nM | 4 nM | 
C=C[C@@H]1C[C@]1(NC(=O)[C@@H]1C[C@@H]2CN1C(=O)[C@H](C1CCCC1)NC(=O)OCC(C)(C)CCCc1cc3c(nc4cc(C#N)ccc4c3cc1OC)O2)C(=O)NS(=O)(=O)C1CC1 | < 0.02 nM | 7.5 µM |  | 0.8 nM |  | 13 nM | 4 nM | 
C=C[C@@H]1C[C@]1(NC(=O)[C@@H]1C[C@@H]2CN1C(=O)[C@H](C1CCCC1)NC(=O)OCC(C)(C)CCCc1cc3c(nc4cc(F)ccc4c3cc1OC)O2)C(=O)NS(=O)(=O)C1CC1 | < 0.02 nM | 22 µM |  | 0.9 nM |  | 43 nM | 9 nM | 
C=C[C@@H]1C[C@]1(NC(=O)[C@@H]1C[C@@H]2CN1C(=O)[C@H](C1CCCCC1)NC(=O)OCC(C)(C)CCCc1cc3c(cc(-c4ccccc4)nc3cc1OC)O2)C(=O)NS(=O)(=O)C1CC1 | 0.05 nM | 9.9 µM |  | 21 nM |  | 28 nM | 3.6 nM | 
C=C[C@@H]1C[C@]1(NC(=O)[C@@H]1C[C@@H]2CN1C(=O)[C@H](C1CCCCC1)NC(=O)OCC(C)(C)CCCc1cc3c(cc(-c4ccc(OC)cc4)nc3cc1OC)O2)C(=O)NS(=O)(=O)C1CC1 | 0.07 nM | 6.1 µM |  | 18 nM |  | 25 nM | 3 nM | 
C=C[C@@H]1C[C@]1(NC(=O)[C@@H]1C[C@@H]2CN1C(=O)[C@H](C1CCCCC1)NC(=O)OCC(C)(C)CCCc1cc3c(cc(-c4cccc(OC)c4)nc3cc1OC)O2)C(=O)NS(=O)(=O)C1CC1 | 0.07 nM | 6.7 µM |  | 78 nM |  | 19 nM | 6 nM | 
C=C[C@@H]1C[C@]1(NC(=O)[C@@H]1C[C@@H]2CN1C(=O)[C@H](C1CCCCC1)NC(=O)OCC(C)(C)CCCc1cc3c(cc(-c4ccccc4OC)nc3cc1OC)O2)C(=O)NS(=O)(=O)C1CC1 | 0.09 nM | 6.3 µM |  | 62 nM |  | 31 nM | 7 nM | 
C=C[C@@H]1C[C@]1(NC(=O)[C@@H]1C[C@@H]2CN1C(=O)[C@H](C1CCCCC1)NC(=O)OCC(C)(C)CCCc1cc3c(cc(-c4ccc(F)cc4)nc3cc1OC)O2)C(=O)NS(=O)(=O)C1CC1 | 0.18 nM |  |  | 29 nM |  | 110 nM | 11 nM | 
C=C[C@@H]1C[C@]1(NC(=O)[C@@H]1C[C@@H]2CN1C(=O)[C@H](C1CCCCC1)NC(=O)OCC(C)(C)CCCc1cc3c(cc(-c4cccnc4)nc3cc1OC)O2)C(=O)NS(=O)(=O)C1CC1 |  | 0.2 µM |  | 55 nM |  | 92 nM | 27 nM | 
C=C[C@@H]1C[C@]1(NC(=O)[C@@H]1C[C@@H]2CN1C(=O)[C@H](C1CCCCC1)NC(=O)OCC(C)(C)CCCc1cc3c(cc(NC)nc3cc1OC)O2)C(=O)NS(=O)(=O)C1CC1 | 0.09 nM | < 0.005 µM |  | 5.4 nM |  | 90 nM | 1.6 nM | 
C=C[C@@H]1C[C@]1(NC(=O)[C@@H]1C[C@@H]2CN1C(=O)[C@H](C1CCCCC1)NC(=O)OCC(C)(C)CCCc1cc3c(cc(N(C)C(=O)OCC)nc3cc1OC)O2)C(=O)NS(=O)(=O)C1CC1 | 0.03 nM | 42 µM | 3.3 nM | 4.3 nM | 87 nM | 27 nM | 5 nM | 
C=C[C@@H]1C[C@]1(NC(=O)[C@@H]1C[C@@H]2CN1C(=O)[C@H](C1CCCCC1)NC(=O)OCC(C)(C)CCCc1cc3c(cc(N4CCCCC4)nc3cc1OC)O2)C(=O)NS(=O)(=O)C1CC1 | 0.07 nM | 0.1 µM |  | 7.5 nM |  | 26 nM | 5 nM | 
C=C[C@@H]1C[C@]1(NC(=O)[C@@H]1C[C@@H]2CN1C(=O)[C@H](C1CCCCC1)NC(=O)OCC(C)(C)CCCc1cc3c(cc(NC4CCCCC4)nc3cc1OC)O2)C(=O)NS(=O)(=O)C1CC1 | 0.12 nM |  |  | 7.6 nM |  | 1200 nM | 39 nM | 
C=C[C@@H]1C[C@]1(NC(=O)[C@@H]1C[C@@H]2CN1C(=O)[C@H](C1CCCCC1)NC(=O)OCC(C)(C)CCCc1cc3c(cc(O)nc3cc1OC)O2)C(=O)NS(=O)(=O)C1CC1 | 0.07 nM | 0.07 µM |  | 23 nM |  | 460 nM | 85 nM | 
C=C[C@@H]1C[C@]1(NC(=O)[C@@H]1C[C@@H]2CN1C(=O)[C@H](C1CCCCC1)NC(=O)OCC(C)(C)CCCc1cc3c(cc(OC)nc3cc1OC)O2)C(=O)NS(=O)(=O)C1CC1 | 0.04 nM | 5.4 µM |  | 4.1 nM |  | 19 nM | 4 nM | 
C=C[C@@H]1C[C@]1(NC(=O)[C@@H]1C[C@@H]2CN1C(=O)[C@H](C1CCCCC1)NC(=O)OCC(C)(C)CCCc1cc3c(cc(OCC)nc3cc1OC)O2)C(=O)NS(=O)(=O)C1CC1 | 0.09 nM | 40 µM |  | 7.6 nM |  | 43 nM | 6 nM | 
C=C[C@@H]1C[C@]1(NC(=O)[C@@H]1C[C@@H]2CN1C(=O)[C@H](C1CCCCC1)NC(=O)OCC(C)(C)CCCc1cc3c(cc(OC4CCCC4)nc3cc1OC)O2)C(=O)NS(=O)(=O)C1CC1 | 0.05 nM | 4.6 µM |  | 15 nM |  | 34 nM | 5 nM | 
C=C[C@@H]1C[C@]1(NC(=O)[C@@H]1C[C@@H]2CN1C(=O)[C@H](C1CCCCC1)NC(=O)OCC(C)(C)CCCc1cc3c(cc(OCc4csc(C)n4)nc3cc1OC)O2)C(=O)NS(=O)(=O)C1CC1 | 0.1 nM | 19 µM | 2.1 nM | 3.1 nM | 88 nM | 16 nM | 3.5 nM | 
C=C[C@@H]1C[C@]1(NC(=O)[C@@H]1C[C@@H]2CN1C(=O)[C@H](C1CCCC1)NC(=O)OCC(C)(C)CCCc1cc3c(cc(OCc4csc(C)n4)nc3cc1OC)O2)C(=O)NS(=O)(=O)C1CC1 | 0.09 nM | 0.8 µM |  | 1.6 nM |  | 26 nM | 5 nM | 
C=C[C@@H]1C[C@]1(NC(=O)[C@@H]1C[C@@H]2CN1C(=O)[C@H](C1CCCC1)NC(=O)OCC(C)(C)CCCc1cc3c(cc(OCc4csc(C(C)C)n4)nc3cc1OC)O2)C(=O)NS(=O)(=O)C1CC1 | < 0.02 nM | 2.7 µM |  | 2 nM |  | 26 nM | 4 nM | 
C=C[C@@H]1C[C@]1(NC(=O)[C@@H]1C[C@@H]2CN1C(=O)[C@H](C1CCCC1)NC(=O)OCC(C)(C)CCCc1cc3c(cc(OCc4ncn(C)n4)nc3cc1OC)O2)C(=O)NS(=O)(=O)C1CC1 | 0.03 nM | 0.03 µM |  | 1 nM |  | 170 nM | 36 nM | 
C=C[C@@H]1C[C@]1(NC(=O)[C@@H]1C[C@@H]2CN1C(=O)[C@H](C1CCCC1)NC(=O)OCC(C)(C)CCCc1cc3c(cc(OCc4ncco4)nc3cc1OC)O2)C(=O)NS(=O)(=O)C1CC1 | < 0.02 nM | 2.6 µM |  | 1.1 nM |  | 16 nM | 4 nM | 
C=C[C@@H]1C[C@]1(NC(=O)[C@@H]1C[C@@H]2CN1C(=O)[C@H](C1CCCCC1)NC(=O)OCC(C)(C)CCCc1cc3c(cc4nccn4c3cc1OC)O2)C(=O)NS(=O)(=O)C1CC1 | 0.04 nM | 0.8 µM |  | 1.8 nM |  | 140 nM | 43 nM | 
C=C[C@@H]1C[C@]1(NC(=O)[C@@H]1C[C@@H]2CN1C(=O)[C@H](C1CCCCC1)NC(=O)OCC(C)(C)CCCc1ccc3c(c1)c(cc1nccn13)O2)C(=O)NS(=O)(=O)C1CC1 | 0.08 nM | 0.7 µM |  | 5.2 nM |  | 180 nM | 33 nM | 
C=C[C@@H]1C[C@]1(NC(=O)[C@@H]1C[C@@H]2CN1C(=O)[C@H](C1CCCC1)NC(=O)OCC(C)(C)CCCc1cc3c(nc4ccccc4c3cc1OC)O2)C(=O)NS(=O)(=O)C1CC1 | < 0.02 nM | 27 µM |  | 1.7 nM |  | 29 nM | 3 nM | 
CC[C@@H]1C[C@]1(NC(=O)[C@@H]1C[C@@H]2CN1C(=O)[C@H](C(C)(C)C)NC(=O)OCC(C)(C)CCCCc1cccc3c1CN(C3)C(=O)O2)C(=O)NS(=O)(=O)C1CC1 [VANIPREVIR] |  |  |  |  |  |  |  | 54 nM
